{"source": "patent US20240100125A1", "about": "(ENYO PHARMA, priority 2021, published 2024)", "key": {"[1]": {"system": "HBV infected primary human hepatocytes (PHH)", "assay": "HBV replication in infected primary human hepatocytes (PHH), FXR agonist +/- IFN-alpha", "assay_type": "cell-based", "conditions": "treated day 4 to 10 post-infection, harvested day 10, GW4064 1 or 10 uM, IFN-alpha 100 IU/mL", "description": "FIG. 3. […] Freshly prepared and seeded PHH were infected with HBV at a multiplicity of infection of 250 GE/cell. From day 4 to 10 post-infection, cells were treated with […], +/−IFN-alpha at 100 IU/mL, or vehicle (NT), or IFN-alpha at 100 IU/mL alone. Cells and supernatants were harvested at day 10 for intracellular HBV RNA, viremia, and secreted antigens (HBsAg and HBeAg) quantification. Results are the mean+/−SD of one experiment performed with three biological replicates.\nFIG. 4. […] Freshly prepared and seeded PHH were infected with HBV at a multiplicity of infection of 250 GE/cell. From day 4 to 10 post-infection, cells were treated with Vonafexor at 10 uM, or Nidufexor at 10 uM, or Tropifexor at 1 uM, or OCA at 10 uM, or GW4064 at 10 uM, +/−IFN-alpha (IFN) at 100 IU/mL, or vehicle, or IFN-alpha at 100 IU/mL alone. Supernatants were harvested at day 10 for secreted HBs antigen (HBsAg) quantification. Results are the mean+/−SEM of five experiments performed with three replicates.\nSupernatants containing HBV particles were clarified (0.45 μm filter) and concentrated with 8% PEG 8000 (Sigma-Aldrich).\nHBV DNA was quantified using the AmpliPrep/COBAS® TaqMan® HBV Test (Roche).\nHBs and HBe antigens secreted in cells supernatant were quantified, after required dilutions, with Autobio kits (AutoBio, China) according to manufacturer's protocol.\nTotal RNA was prepared using NucleoSpin RNA Plus (Macherey-Nagel). After DNA digestion with TURBO DNase (Ambion), maximum 1000 ng RNA were reverse-transcribed using High-Capacity RNA-to-cDNA kit (Thermo Fisher Scientific). […] All assays were performed in triplicate.\nHBs antigen secreted in cells supernatant were quantified, after required dilutions, with Autobio kits (AutoBio, China) according to manufacturer's protocol.\nPHH are naturally susceptible to infection with HBV virions produced in vitro, leading to very high levels of replication of the virus."}, "HBV [2]": {"system": "HBV", "assay": "4-week treatment course in HBV chronically infected patients: HBV replication markers (pgRNA, HBcrAg, HBsAg)", "assay_type": "in vivo, human"}, "FXR": {"system": "FXR", "assay": "FXR engagement markers (C4, FGF19) in HBV chronically infected patients", "assay_type": "in vivo, human", "conditions": "all EYP001 doses; data not shown"}, "[3]": {"assay": "Pruritus under EYP001 once a day versus twice a day in combined treatment with IFN-α", "assay_type": "in vivo, human", "conditions": "EYP001 once a day rather than twice a day", "description": "Therefore, in a particular aspect, the FXR agonist is administered once a day."}, "HBV [4]": {"system": "HBV", "conditions": "chronic hepatitis B patients; cited from earlier work"}, "[5]": {"conditions": "change from baseline at day 29, EYP001a 1 × 100 mg/day oral monotherapy"}, "[6]": {"conditions": "change from baseline at day 29, EYP001a 1 × 200 mg/day oral monotherapy"}, "[7]": {"conditions": "change from baseline at day 29, EYP001a 1 × 400 mg/day oral monotherapy"}, "[8]": {"conditions": "change from baseline at day 29, EYP001a 2 × 200 mg/day oral monotherapy"}, "[9]": {"conditions": "change from baseline at end of 4-week treatment (day 29), ETV open-label 0.5 mg/day"}}}
{"molecule": "CC(C)c1onc(-c2c(Cl)cccc2Cl)c1COc1ccc(/C=C/c2cccc(C(=O)O)c2)c(Cl)c1", "note": "[GW4064, 3-[2-[2-Chloro-4-[[3-(2,6-dichlorophenyl)-5-(1-methylethyl)-4-isoxazolyl]methoxy]phenyl]ethenyl]benzoic acid]", "values": [{"measurement": "HBeAg secretion", "setting": "[1]", "value": "reduce in a dose response manner"}, {"measurement": "HBsAg secretion", "setting": "[1]", "value": "unable to significantly impact"}, {"measurement": "intracellular HBV RNA level", "setting": "[1]", "value": "reduce in a dose response manner"}, {"measurement": "viremia", "setting": "[1]", "value": "unable to significantly impact"}]}
{"molecule": "O=C(O)c1cc2c(Cl)c(N3CCN(S(=O)(=O)c4c(Cl)cccc4Cl)CC3)ccc2o1", "note": "[EYP001a]", "values": [{"measurement": "HBVpgRNA Mean", "setting": "HBV [2]; [5]", "value": 0.5, "unit": "Log10 Copies mL"}, {"measurement": "HBcrAg Mean", "setting": "HBV [2]; [5]", "value": "−0.3", "unit": "Log10 IU mL"}, {"measurement": "HBVpgRNA Mean", "setting": "HBV [2]; [6]", "value": 0.4, "unit": "Log10 Copies mL"}, {"measurement": "HBcrAg Mean", "setting": "HBV [2]; [6]", "value": 0.2, "unit": "Log10 IU mL"}, {"measurement": "HBVpgRNA Mean", "setting": "HBV [2]; [7]", "value": 0.2, "unit": "Log10 Copies mL"}, {"measurement": "HBcrAg Mean", "setting": "HBV [2]; [7]", "value": 0.02, "unit": "Log10 IU mL"}, {"measurement": "HBVpgRNA Mean", "setting": "HBV [2]; [8]", "value": "−0.1", "unit": "Log10 Copies mL"}, {"measurement": "HBcrAg Mean", "setting": "HBV [2]; [8]", "value": 1.2, "unit": "Log10 IU mL"}, {"measurement": "mean HBsAg decrease", "setting": "HBV [2]; end of treatment on day 29, 400 mg QD EYP001, p<0.05", "value": "−0.1", "unit": "log 10 IU/mL"}, {"measurement": "C4", "setting": "FXR", "value": "decreases"}, {"measurement": "FGF19", "setting": "FXR", "value": "increases"}, {"measurement": "pruritus", "setting": "[3]", "value": "fewer pruritus"}, {"measurement": "HBV viral load", "setting": "HBV [4]", "value": "reduces HBV viral load"}]}
{"molecule": "C=C1[C@H](CO)[C@@H](O)C[C@@H]1n1cnc2c(=O)[nH]c(N)nc21", "note": "[ETV, entecavir, reference compound]", "values": [{"measurement": "HBVpgRNA Mean", "setting": "HBV [2]; [9]", "value": "−0.3", "unit": "Log10 Copies mL"}, {"measurement": "HBcrAg Mean", "setting": "HBV [2]; [9]", "value": 0.03, "unit": "Log10 IU mL"}]}
